Data reported in PMC10222512, “Thiocarbonyl Derivatives of Natural Chlorins: Synthesis Using Lawesson’s Reagent and a Study of Their Properties” (Molecules, 2023).
“Also recorded” adds a separate entry of the source. Blank lines part the entries; values can stand above or below the compound they belong to.

Legend:
[1] = UV-Vis absorption and fluorescence spectra; type: physicochemical; conditions: dichloromethane; for fluorescence maximum: excitation at 550 nm
Description: Because the pigments noted above are photoactive compounds, it was important to determine the effect of the sulfur atom on their spectral characteristics.
Absorption and fluorescence spectra were recorded on Shimadzu UV1800 UV/VIS (Shimadzu, Duisburg, Germany) and Shimadzu RF-5301 (Shimadzu, Duisburg, Germany) spectrophotometers in quartz cells (0.4 × 1.0 cm) with an optical path length of 1 cm (spectral slit width 1 nm), using dichloromethane, acetone, and water as the solvents. Absorption spectra were recorded in the range of 350–750 nm. Fluorescence spectra were recorded in the range of 600–800 nm (excitation wavelength 550 nm), using dichloromethane, acetone, and water as the solvents. The fluorescence quantum yield was determined by the relative method. A solution of purpurin-18 in toluene was used as the standard. Both ^1H and ^13C NMR spectra were recorded on a Bruker DPX 300 spectrometer (Bruker, Alzenau, Germany). NMR samples were prepared in d6-acetone and CDCl3. Matrix-assisted laser desorption/ionization (MALDI) mass spectra were recorded on a Bruker Ultraflex TOF/TOF spectrometer (Bruker, Alzenau, Germany), with 2,5-dihydroxybenzoic acid as the matrix. Elemental analysis was performed on a Vario Micro Cube analyzer (Elementar, Berlin, Germany).

[2] = Chemical stability in 4% aqueous micellar solution of Kolliphor ELP (absorption band intensity vs time); type: physicochemical
From the text: The stability of pyropheophorbide a 13^1-thioketone (6) in 4% aqueous micellar solution of Kolliphor ELP over time was studied at a neutral pH by monitoring the variation in the Q2 band intensity in the absorption spectra of the sample.
At the next step, we studied the chemical stability of complex 7 obtained in Kolliphor ELP aqueous micellar solutions vs. time at various pH values based on the variation in the intensity of the Qy band in the EAS of the samples (Figure 4).
A solution of compounds (4) or (7) in dichloromethane (1–2 mL) was added dropwise with continuous argon bubbling to a freshly prepared 4% aqueous solution of Kolliphor ® ELP (5 mL) heated to 45 °C. Bubbling was continued until strong foaming started. A clear dark-red solution with a concentration of 0.25 mg/mL was obtained, which was then successively filtered through a 0.45 µm PTFE filter and a 0.22 µm PTFE filter. The concentrations of the resulting micellar solutions were monitored spectrophotometrically.

[3] = tested on: S37 murine sarcoma cell line; experiment: Dark cytotoxicity, MTT assay; type: cell-based
Description: (§2) To estimate cytotoxicity, cells were incubated with the substances for 72 h under dark conditions in a CO2 incubator.
(§3) Cell survival was estimated using the colorimetric MTT test (24 and 72 h after exposure), which is based on the ability of dehydrogenases in living cells to convert yellow water-soluble 3-(4-5-dimethyl-tetrazolyl-2)-2,5-diphenyltetrazolium bromide to blue crystals of formazan, whose amount is measured spectrophotometrically.

[4] = Dark cytotoxicity, MTT assay; type: cell-based, murine; conditions: mouse, S37 murine sarcoma cells; S37 cells; 72 h incubation of compounds with cells, no irradiation, MTT
Description: as §2, §3

[5] = Chemical stability in lysate of S37 sarcoma cells (Qy band intensity); type: physicochemical; conditions: Cell lysate S37 (pH = 7.8)
Description: (§1) The chemical stability of compounds 4 and 7 was also studied in the lysate of S37 sarcoma cells (pH = 7.8), as well as in the cell culture medium at different pH values. The stability was assessed by the change in the intensity of the Qy bands as described above.

[6] = tested on: S37 murine sarcoma cell line; experiment: Photoinduced (combined) cytotoxicity, MTT assay after irradiation; type: cell-based; conditions: S37 cells; for IC50: 4 h PS incubation
Description: To estimate the combined effect (photoinduced and chemocytotoxic) of compound (4) and platinum complex (7), a two-step experiment was designed: incubation of cells with PS for 4 h and irradiation and subsequent incubation for 48 or 72 h followed by estimation of cell survival by the MTT assay.
The S37 murine sarcoma cell line (collection of the N.N. Blokhin Research Institute of Oncology) was used to estimate photoinduced activity and cytotoxicity.
Cells were cultured in DMEM medium (PanEco, Russia) with addition of 2 mM L-glutamine (PanEco, Moscow, Russia) and 10% fetal calf blood serum (FCS) (Corning, New York, NY, USA) in 25 cm^2 culture vials (Corning, USA) at 37 °C in a humid atmosphere containing 5% carbon dioxide. Upon passivation, the Versene solution (PanEco, Russia) was used to remove the cells from the substrate. For in vitro studies, cells of the 3rd and 4th passages were used with an optimal seeding concentration of 6 × 10^4 cells/mL.
The concentrations of the solutions obtained were 0.6 mg/mL for compound (4) and 0.1 mg/mL for compound (7). All the volumes obtained were filtered through a Millipore membrane filter with a pore size of 0.22 μm. Next, the samples were diluted in 24-well plates (Corning, USA) on the cell-culturing medium. The final concentration of the substances ranged from 32 ng/mL to 20 μg/mL.
To perform the experiments, S37 tumor cells were seeded into 96-well plates in the amount of 6 × 10^3 cells per well in a 100 μL volume. Exposure was performed in the exponential phase of cell growth 24 h after seeding. Solutions of compounds in the complete culture medium were added to the wells at final concentrations of 32 ng/mL to 20 μg/mL, in triplicate. The time of cell incubation with compounds before irradiation was 4 h. The culture medium was used as the blank. Light exposure was performed with a halogen lamp through a KS-10 broadband filter (λ > 620 nm). The light dose was 10 J/cm^2. After light exposure, the plates with cells were placed in a CO2 incubator for 24, 48, or 72 h.
Cell survival was estimated using the colorimetric MTT test (24 and 72 h after exposure), which is based on the ability of dehydrogenases in living cells to convert yellow water-soluble 3-(4-5-dimethyl-[…]-2)-2,5-diphenyltetrazolium bromide to blue crystals of formazan, whose amount is measured spectrophotometrically.
Before the test, cells were washed from cytotoxic agents. Then, 0.5% solution of 3-(4,5-dimethylthiazolyl-2)-2,5-diphenyltetrazolium bromide was added to the wells and the system was incubated for 3 h under standard conditions. After incubation, the medium with the MTT-reagent was removed and formazan crystals were dissolved for 10 min with dimethyl sulfoxide. Optical density was measured on a Multiscan FC multichannel plate photometer (Thermo scientific) at 550 nm.
The growth inhibition (GI) of cells in a culture was calculated using the following formula:GI(%) = [ODk − ODo/ODk)] × 100%, where ODo is the optical density of formazan in the test wells and ODk is the optical density of formazan in the control wells.
Quantitative parameters were calculated using the results of three independent tests.

[7] = Chemical stability in cell culture medium at different pH (Qy band intensity); type: physicochemical
Description: as §1

Compound: Pheophorbide a [Compound 3, reference compound]
long-wave absorption maximum (Q2 band) [1]: 666 nm | fluorescence maximum [1]: 680 nm

Compound: C=Cc1c(C)c2cc3nc(c4c5[nH]c(cc6nc(cc1[nH]2)C(C)=C6CC)c(C)c5C(=O)C4)[C@@H](CCC(=O)OC)[C@@H]3C [Compound 4, pyropheophorbide a methyl ester, reference compound]
fluorescence maximum [1]: 684 nm | cytotoxic effect without light irradiation (in words) ([3]; S37 sarcoma cells, 72 h incubation, dark): no cytotoxic effect on cells; also recorded: does not have a pronounced cytotoxicity | IC50 at 72 h [4]: > 36400 nM | Content, % ([5]; 0 min): 100% | Intensity at 666 nm ([5]; 0 min): 0.9538 | Content, % ([5]; 4 h): 91% | Intensity at 666 nm ([5]; 4 h): 0.8679 | Content, % ([5]; 24 h): 82% | Intensity at 666 nm ([5]; 24 h): 0.7821 | Content, % ([5]; 72 h): 76% | Intensity at 666 nm ([5]; 72 h): 0.7249 | IC50 ([6]; Mus musculus, S37, light or radiation study, irradiation at 10 J/cm^2, MTT after 24 h, read-out: IC50, Photoinduced cytotoxicity): 4198 ± 13 nM | IC50 ([6]; Mus musculus, S37, light or radiation study, irradiation at 10 J/cm^2, MTT after 48 h, read-out: IC50, Combined cytotoxicity): 4076 ± 11 nM | IC50 ([6]; Mus musculus, S37, light or radiation study, irradiation at 10 J/cm^2, MTT after 72 h, read-out: IC50, Combined cytotoxicity): 4023 ± 13 nM | photoinduced activity, times lower than that of the platinum complex ([6]; versus platinum complex 7): 8.8 times | Content, % ([7]; pH 4, 0 min): 100% | Intensity at 666 nm ([7]; pH 4, 0 min): 0.9538 | Content, % ([7]; pH 4, 4 h): 70% | Intensity at 666 nm ([7]; pH 4, 4 h): 0.6677 | Content, % ([7]; pH 4, 24 h): 60% | Intensity at 666 nm ([7]; pH 4, 24 h): 0.5723 | Content, % ([7]; pH 4, 72 h): 58% | Intensity at 666 nm ([7]; pH 4, 72 h): 0.5532 | Content, % ([7]; pH 7, 0 min): 100% | Intensity at 666 nm ([7]; pH 7, 0 min): 0.9538 | Content, % ([7]; pH 7, 4 h): 93% | Intensity at 666 nm ([7]; pH 7, 4 h): 0.887 | Content, % ([7]; pH 7, 24 h): 87% | Intensity at 666 nm ([7]; pH 7, 24 h): 0.8298 | Content, % ([7]; pH 7, 72 h): 79% | Intensity at 666 nm ([7]; pH 7, 72 h): 0.7535 | Content, % ([7]; pH 9, 0 min): 100% | Intensity at 666 nm ([7]; pH 9, 0 min): 0.9538 | Content, % ([7]; pH 9, 4 h): 85% | Intensity at 666 nm ([7]; pH 9, 4 h): 0.8107 | Content, % ([7]; pH 9, 24 h): 78% | Intensity at 666 nm ([7]; pH 9, 24 h): 0.744 | Intensity at 666 nm ([7]; pH 9, 72 h): 0.7058

Now from value to compound, other results behind:

long-wave absorption maximum (Q2 band) [1]: 708 nm | fluorescence maximum [1]: 723 nm | decrease of Q2 band ([2]; 4% Kolliphor ELP micellar solution, neutral pH, after 3 h): more than 50% | conversion of thioketone to pyropheophorbide a (4) ([2]; 4% Kolliphor ELP micellar solution, neutral pH, after 24 h): completely converted
Compound: C=Cc1c(C)c2cc3nc(c4c5[nH]c(cc6nc(cc1[nH]2)C(C)=C6CC)c(C)c5C(=S)C4)[C@@H](CCC(=O)OC)[C@@H]3C [Compound 6, Pyropheophorbide a 13^1-Thioketone]

long-wave absorption maximum (Q2 band) [1]: 706 nm | fluorescence maximum [1]: 719 nm
Compound: C=Cc1c(C)c2cc3nc(c4c5[nH]c(cc6nc(cc1[nH]2)C(C)=C6CC)c(C)c5C(=S)C4C(=O)OC)[C@@H](CCC(=O)OC)[C@@H]3C (some centres unmarked) [Compound 5]

chemical stability (Qy band intensity) ([2]; Kolliphor ELP micellar solution, pH = 7): remained stable for 24 h | Content, % ([5]; 0 min): 100% | Intensity at 675 nm ([5]; 0 min): 0.913 | Content, % ([5]; 4 h): 89% | Intensity at 675 nm ([5]; 4 h): 0.8126 | Content, % ([5]; 24 h): 84% | Intensity at 675 nm ([5]; 24 h): 0.7669 | Content, % ([5]; 72 h): 79% | Intensity at 675 nm ([5]; 72 h): 0.7213 | Content, % ([7]; pH 4, 0 min): 100% | Intensity at 675 nm ([7]; pH 4, 0 min): 0.913 | Content, % ([7]; pH 4, 4 h): 25% | Intensity at 675 nm ([7]; pH 4, 4 h): 0.2282 | Content, % ([7]; pH 4, 24 h): 17% | Intensity at 675 nm ([7]; pH 4, 24 h): 0.1552 | Content, % ([7]; pH 4, 72 h): 11% | Intensity at 675 nm ([7]; pH 4, 72 h): 0.1004 | Content, % ([7]; pH 7, 0 min): 100% | Intensity at 675 nm ([7]; pH 7, 0 min): 0.913 | Content, % ([7]; pH 7, 4 h): 97% | Intensity at 675 nm ([7]; pH 7, 4 h): 0.8856 | Content, % ([7]; pH 7, 24 h): 94% | Intensity at 675 nm ([7]; pH 7, 24 h): 0.8582 | Content, % ([7]; pH 7, 72 h): 91% | Intensity at 675 nm ([7]; pH 7, 72 h): 0.833 | Content, % ([7]; pH 9, 0 min): 100% | Intensity at 675 nm ([7]; pH 9, 0 min): 0.913 | Content, % ([7]; pH 9, 4 h): 87% | Intensity at 675 nm ([7]; pH 9, 4 h): 0.7943 | Content, % ([7]; pH 9, 24 h): 75% | Intensity at 675 nm ([7]; pH 9, 24 h): 0.6847 | Content, % ([7]; pH 9, 72 h): 65% | Intensity at 675 nm ([7]; pH 9, 72 h): 0.5277
Compound: C=Cc1c(C)c2cc3nc(c4c5[nH]c(cc6nc(cc1[nH]2)C(C)=C6CC)c(C)c5C(=[S+][Pt-2]([NH3+])([NH3+])[Cl])C4)[C@@H](CCC(=O)OC)[C@@H]3C.O=[N+]([O-])[O-] (some centres unmarked) [Compound 7, Platinum Complex of Pyropheophorbide a 13^1-Thioketone]
IC50 ([3]; S37 cells, 72 h incubation of compounds with cells, no irradiation, MTT): 271 ± 7 nM | chemical stability (Qy band) ([2]; Kolliphor ELP micellar solution, acid, pH = 4): hypsochromic shift in the Qy band to the 666 nm region | chemical stability (Qy band intensity) ([2]; Kolliphor ELP micellar solution, alkaline, pH = 9): a precipitate formed and the intensity of the Qy absorption band decreased | IC50 ([6]; irradiation at 10 J/cm^2, MTT after 24 h, read-out: IC50, Photoinduced cytotoxicity): 478 ± 9 nM | IC50 ([6]; irradiation at 10 J/cm^2, MTT after 48 h, read-out: IC50, Combined cytotoxicity): 146 ± 7 nM | IC50 ([6]; irradiation at 10 J/cm^2, MTT after 72 h, read-out: IC50, Combined cytotoxicity): 98 ± 5 nM | increase of photocytotoxicity on increasing incubation time after irradiation ([6]; from 24 h to 72 h after irradiation): 5 fold
